# Test results published in patent publication US10308632B2, “Antifungal compounds and processes for making” (VPS-3, Inc., priority 2015, dated 2019).
# What was measured:
# Assay type in all cases: physicochemical
# [1] = XRPD stability after 7 days storage at elevated humidity
# Method: X-Ray Powder Diffraction patterns were collected on a Bruker AXS C2 GADDS diffractometer using Cu Kα radiation (40 kV, 40 mA), automated XYZ stage, laser video microscope for auto-sample positioning and a HiStar 2-dimensional area detector. X-ray optics consists of a single Göbel multilayer mirror coupled with a pinhole collimator of 0.3 mm. A weekly performance check is carried out using a certified standard NIST 1976 Corundum (flat plate). The beam divergence, i.e. the effective size of the X-ray beam on the sample, was approximately 4 mm. A Θ-Θ continuous scan mode was employed with a sample—detector distance of 20 cm which gives an effective […] of 3.2°-29.7°. Typically the sample would be exposed to the X-ray beam for 120 seconds. The software used for data collection was GADDS for XP/2000 4.1.43 and the data were analysed and presented using Diffrac Plus EVA v13.0.0.2 or v15.0.0.0. Samples run under ambient conditions were prepared as flat plate specimens using powder as received without grinding. Approximately 1-2 mg of the sample was lightly pressed on a glass slide to obtain a flat surface. Samples run under non-ambient conditions were mounted on a silicon wafer with heat-conducting compound. The sample was then heated to the appropriate temperature at 30° C./min and subsequently held isothermally for 1 minute before data collection was initiated. X-Ray Powder Diffraction patterns were also collected on a Bruker D8 diffractometer using Cu Kα radiation (40 kV, 40 mA), θ-2θ goniometer, and divergence of V4 and receiving slits, a Ge monochromator and a Lynxeye detector. The instrument is performance checked using a certified Corundum standard (NIST 1976). The software used for data collection was Diffrac Plus XRD Commander v2.6.1 and the data were analysed and presented using Diffrac Plus EVA v15.0.0.0. Samples were run under ambient conditions as flat plate specimens using powder as received. The sample was gently packed into a cavity cut into polished, zero-background (510) silicon wafer. The sample was rotated in its own plane during analysis. The details of the data collection are: Angular range: 2 to 42° 2 θ; Step size: 0.05° 2θ; Collection time: 0.5 s/step.
# [2] = Thermo-gravimetric analysis (TGA), decomposition onset; settings: heated at 10° C./min
# Method: Thermo-gravimetric analysis (TGA) data were collected on a TA Instruments Discovery TGA, equipped with a 25 position auto-sampler. The instrument was temperature calibrated using certified alumel and nickel. Typically, 3-10 mg of each sample was loaded onto a pre-tared aluminium pan and heated at 10° C./min from ambient temperature to 350° C. A nitrogen purge at 25 mL/min was maintained over the sample. The instrument control and data analysis software was TRIOS v3.2.0.3877.
# [3] = Competitive slurry experiments of Form 1 and Form 2 (thermodynamic stability); settings: temperature range investigated (5° C., 25° C., 50° C.)
# Method: The melt of Form 1 of compound 5 was determined by DSC to be at 129.0° C. with an enthalpy of −46 J/g. A melt endotherm was not determined for Form 2 as it transforms to Form 1 upon heating at different rates. […] These experiments were performed in IPA, ethanol and toluene. To conduct these experiments a solid mixture of Forms 1 and 2 (<18 mg per sample) was suspended in the corresponding saturated solution of compound 5 and stirred at the desired temperature. Saturated solutions of compound 5 were prepared at 50° C. by dissolving 40 mg, 60 mg and 200 mg of sample in 1.4 mL of IPA, 0.8 mL of ethanol and 0.8 mL of toluene, respectively. The slurries were filtered, air-dried and analyzed by XRPD after stirring for up to 10 days at the desired temperature. […] All the experiments except for that performed in IPA at 5° C. gave pure Form 1.
# [4] = Gravimetric/dynamic vapor sorption (GVS/DVS) moisture sorption isotherm; settings: for GVS hysteresis: 0-90% RH range; for moisture uptake by GVS: at 90% RH; for GVS water uptake: over 0-90% RH range, 25° C.; for XRPD post GVS: sample re-analysed by XRPD after isotherm
# Method: Gravimetric Vapor Sorption (GVS) isotherms were obtained using a SMS DVS Intrinsic moisture sorption analyser, controlled by DVS Intrinsic Control software v1.0.1.2 (or v 1.0.1.3). The sample temperature was maintained at 25° C. by the instrument controls. The humidity was controlled by mixing streams of dry and wet nitrogen, with a total flow rate of 200 mL/min The relative humidity was measured by a calibrated Rotronic probe (dynamic range of 1.0-100% RH), located near the sample. The weight change, (mass relaxation) of the sample as a function of % RH was constantly monitored by the microbalance (accuracy ±0.005 mg). Typically. 10-15 mg of sample was placed in a tared mesh stainless steel basket under ambient conditions. The sample was loaded and unloaded at 40% RH and 25° C. (typical room conditions). A moisture sorption isotherm was performed as outlined below (2 scans giving 1 complete cycle). The standard isotherm was performed at 25° C. at 10% RH intervals over a 0-90% RH range. Data analysis was undertaken in Microsoft Excel using DVS Analysis Suite v6.2 (or 6.1 or 6.0). [table] The sample was recovered after completion of the isotherm and re-analysed by XRPD.
# [5] = Variable temperature XRPD (VT-XRPD), polymorph conversion; settings: upon heating
# Method: X-Ray Powder Diffraction patterns were collected on a Bruker AXS C2 GADDS diffractometer using Cu Kα radiation (40 kV, 40 mA), automated XYZ stage, laser video microscope for auto-sample positioning and a HiStar 2-dimensional area detector. X-ray optics consists of a single Göbel multilayer mirror coupled with a pinhole collimator of 0.3 mm. A weekly performance check is carried out using a certified standard NIST 1976 Corundum (flat plate). The beam divergence, i.e. the effective size of the X-ray beam on the sample, was approximately 4 mm. A Θ-Θ continuous scan mode was employed with a sample—detector distance of 20 cm which gives an effective […] of 3.2°-29.7°. Typically the sample would be exposed to the X-ray beam for 120 seconds. The software used for data collection was GADDS for XP/2000 4.1.43 and the data were analysed and presented using Diffrac Plus EVA v13.0.0.2 or v15.0.0.0. Samples run under ambient conditions were prepared as flat plate specimens using powder as received without grinding. Approximately 1-2 mg of the sample was lightly pressed on a glass slide to obtain a flat surface. Samples run under non-ambient conditions were mounted on a silicon wafer with heat-conducting compound. The sample was then heated to the appropriate temperature at 30° C./min and subsequently held isothermally for 1 minute before data collection was initiated. […]
XRPD stability post 7 days ([1]; 25° C. & 96% RH),XRPD stability post 7 days ([1]; 40° C. & 75% RH),stability after 7 days storage at elevated humidity conditions [1],TGA decomposition onset [2],thermodynamic stability of the pair Form 1/Form 2 [3],GVS hysteresis [4],moisture uptake by GVS [4],GVS water uptake [4],XRPD post GVS [4],VT-XRPD: conversion to Form 1 starts at [5],SMILES
Unchanged by XRPD,Unchanged by XRPD,stable,Decomposition onset at ~200 °C,thermodynamically stable form,(slight hysteresis observed),~1.3%,ca. 1.3% water uptake over,unchanged,,N#Cc1ccc(COc2ccc(C#Cc3ccc(C(F)(F)[C@](O)(Cn4cnnn4)c4ccc(F)cc4F)nc3)cc2)cc1 [Compound 5 (Anhydrous Form 1)]
Unchanged by XRPD,Unchanged by XRPD,remained stable,Decomposition onset at ~200 °C,,(no hysteresis observed),~0.7%,ca. 0.7% water uptake over,unchanged,at 105 °C,N#Cc1ccc(COc2ccc(C#Cc3ccc(C(F)(F)[C@](O)(Cn4cnnn4)c4ccc(F)cc4F)nc3)cc2)cc1 [Compound 5 (Anhydrous Form 2)]
Unchanged by XRPD,Unchanged by XRPD,stable,Decomposition onset at ~300 °C,,(no hysteresis observed),~1.6%,ca. 1.6% water uptake over,unchanged,,N#Cc1ccc(COc2ccc(C#Cc3ccc(C(F)(F)[C@](O)(Cn4cnnn4)c4ccc(F)cc4F)nc3)cc2)cc1 [Compound 14]
